Assay results published in patent US4507487A, “Chemical compounds” (Bristol-Myers Company, priority 1983, dated 1985).
≈ marks a conversion by molar mass, not a printed value. Where two headings read alike, the source gives them in different places.

Columns and labels:
K. pneumoniae D11 = assay: MIC against specific test organism; format: cell-based; conditions: Klebsiella pneumoniae, read-out: Minimum Inhibitory Concentration
Protocol: (§1) In the primary evaluation of the compounds of this invention, the Minimum Inhibitory Concentrations (MIC's) of the compounds were determined by the two-fold serial agar dilution method in Mueller-Hinton agar against 32 strains of test organisms in six groups.
(§2) The test method was as described for Table 1.

Ent. cloacae A9656 = assay: MIC against specific test organism; format: cell-based; conditions: Enterobacter cloacae, read-out: Minimum Inhibitory Concentration
Protocol: as §1, §2

M. morganii A9553 = assay: MIC against specific test organism; format: cell-based; conditions: Morganella morganii, read-out: Minimum Inhibitory Concentration
Protocol: as §1, §2

Ser. marcescens A20019 = assay: MIC against specific test organism; format: cell-based; conditions: Serratia marcescens, read-out: Minimum Inhibitory Concentration
Protocol: as §1, §2

Ps. aeruginosa A9843 = assay: MIC against specific test organism; format: cell-based; conditions: Pseudomonas aeruginosa, read-out: Minimum Inhibitory Concentration
Protocol: as §1, §2

S. aureus Smith = assay: MIC against specific test organism; format: cell-based; conditions: Staphylococcus aureus, read-out: Minimum Inhibitory Concentration
Protocol: as §1, §2

Pr. mirabilis A9554 = assay: MIC against specific test organism; format: cell-based; conditions: Proteus mirabilis, read-out: Minimum Inhibitory Concentration
Protocol: as §1, §2

Ps. aeruginosa A15150 = assay: MIC against specific test organism; format: cell-based; conditions: Pseudomonas aeruginosa, read-out: Minimum Inhibitory Concentration
Protocol: as §1, §2

E. coli Juhl = assay: MIC against specific test organism; format: cell-based; conditions: Escherichia coli, read-out: Minimum Inhibitory Concentration
Protocol: as §1, §2

K. pneumoniae A9867 = assay: MIC against specific test organism; format: cell-based; conditions: Klebsiella pneumoniae, A9867, read-out: Minimum Inhibitory Concentration
Protocol: as §1, §2

S. aureus BX-1633-2 = assay: MIC against specific test organism; format: cell-based; conditions: Staphylococcus aureus, BX16332; S. aureus BX-1633-2, penicillin-resistant strain; read-out: Minimum Inhibitory Concentration
Protocol: as §1, §2

E. coli A15164 = assay: MIC against specific test organism; format: cell-based; conditions: Escherichia coli; E. coli A15164, cephalothin-resistant strain; read-out: Minimum Inhibitory Concentration
Protocol: as §1, §2

Ps. aeruginosa A20717 = assay: MIC against specific test organism; format: cell-based; conditions: Pseudomonas aeruginosa, read-out: Minimum Inhibitory Concentration
Protocol: as §1, §2

[1] = test system: Penicillinsensitive S. aureus; assay: MIC, two-fold serial agar dilution in Mueller-Hinton agar, group (G+)-Ia; format: cell-based; conditions: Staphylococcus aureus; (G+)-Ia, penicillin-sensitive S. aureus (5 strains); read-out: Geometric Mean of MIC
Protocol: as §1

[2] = test system: M. morganii, Ent. cloacae and Ser. marcescens; assay: MIC, two-fold serial agar dilution in Mueller-Hinton agar, group (G-)-II; format: cell-based; conditions: (G-)-II, M. morganii (1), Ent. cloacae (2), Ser. marcescens (2 strains); read-out: Geometric Mean of MIC
Protocol: as §1
(G-)II: M. morganii (1 strain), Ent. cloacae (2 strains) and Ser.

[3] = test system: Penicillinresistant S. aureus; assay: MIC, two-fold serial agar dilution in Mueller-Hinton agar, group (G+)-Ib; format: cell-based; conditions: Staphylococcus aureus, read-out: Geometric Mean of MIC
Protocol: as §1
(G+)Ib: Penicillinresistant S. aureus (5 strains)

[4] = Mouse blood levels after single intramuscular injection; format: in vivo, mice; conditions: for concentration at 10 min / concentration at 20 min / concentration at 0.5 h / concentration at 40 min / concentration at 50 min / concentration at 1 h / concentration at 1.5 h: read-out: Mouse Blood Level; for concentration at 0.5 h: 30 minutes; for concentration at 1 h: 60 minutes; for concentration at 1.5 h: 90 minutes
Protocol: The absorption of some of the preferred compounds were determined in mice following a single intramuscular injection of the test compound (dissolved in 0.1M phosphate buffer; pH 7) at a dosage of 10, 20 or 40 mg/kg. Blood samples were collected from the orbital sinuses into heparinized capillary tubes and assayed in Nutrient Agar (pH 6.6) using E. coli Ess-22-31 as the test organism. The blood levels at various time intervals, the half-life values (t1/2) and the areas under the curve (AUC) are shown in Table 3.

[5] = test system: Cephalothinresistant E. coli and Kl. pneumoniae; assay: MIC, two-fold serial agar dilution in Mueller-Hinton agar, group (G-)-Ib; format: cell-based; conditions: read-out: Geometric Mean of MIC
Protocol: as §1
(G-)Ib: Cephalothinresistant E. coli (3 strains) and Kl. pneumoniae (3

Ps. aeruginosa = assay: MIC, two-fold serial agar dilution in Mueller-Hinton agar, group (G-)-III; format: cell-based; conditions: Pseudomonas aeruginosa, Ps. aeruginosa (6 strains), read-out: Geometric Mean of MIC
Protocol: as §1

[6] = test system: Cephalothinsensitive E. coli, Kl. pneumoniae and Pr. mirabilis; assay: MIC, two-fold serial agar dilution in Mueller-Hinton agar, group (G-)-Ia; format: cell-based; conditions: (G-)-Ia, cephalothin-sensitive E. coli (2), Kl. pneumoniae (1), Pr. mirabilis (2 strains); read-out: Geometric Mean of MIC
Protocol: as §1
(G-)Ia: Cephalothinsensitive E. coli (2 strains), Kl. pneumoniae (1
strain) and Pr. mirabilis (2 strains)

Which MIC (K. pneumoniae D11) does the source give for CSc1scc[n+]1CC1=C(C(=O)[O-])N2C(=O)C(NC(=O)/C(=N\OC(C)(C)C(=O)O)c3csc(N)n3)[C@H]2SC1 (stereo partly shown) [Example 1, 7-[(Z)-2-(2-Aminothiazol-4-yl)-2-(2-carboxyprop-2-oxyimino)acetamido]-3-(2-methylthiothiazolio)methyl-3-cephem-4-carboxylate] here?
Its MIC is 0.1 mg/L (≈ 0.167 µM).

What about the MIC (Ent. cloacae A9656) of the same compound?
Its MIC is 0.1 mg/L (≈ 0.167 µM).

What about the MIC (M. morganii A9553) of the same compound?
The MIC was 0.1 mg/L (≈ 0.167 µM).

And the MIC (Ser. marcescens A20019)?
The MIC was 0.1 mg/L (≈ 0.167 µM).

What about the MIC (Ps. aeruginosa A9843) of the same compound?
Its MIC is 1.6 mg/L (≈ 2.67 µM).

And the MIC (S. aureus Smith)?
The MIC was 1.6 mg/L (≈ 2.67 µM).

And the MIC (Pr. mirabilis A9554)?
The MIC was 0.05 mg/L (≈ 0.0835 µM).

And the MIC (Ps. aeruginosa A15150)?
Its MIC is 0.8 mg/L (≈ 1.34 µM).

What about the MIC (E. coli Juhl) of the same compound?
The MIC was 0.1 mg/L (≈ 0.167 µM).

What about the MIC (K. pneumoniae A9867) of the same compound?
The MIC was 1.6 mg/L (≈ 2.67 µM).

And the MIC (S. aureus BX-1633-2)?
Its MIC is 3.1 mg/L (≈ 5.18 µM).

And the MIC (E. coli A15164)?
Its MIC is 0.8 mg/L (≈ 1.34 µM).

And the MIC (Ps. aeruginosa A20717)?
The MIC was 3.1 mg/L (≈ 5.18 µM).

And the MIC [1]?
The MIC was 1.2 mg/L (≈ 2 µM).

And the MIC [2]?
The MIC was 0.24 mg/L (≈ 0.401 µM).

And the MIC [3]?
The MIC was 3.6 mg/L (≈ 6.01 µM).

And the AUC ([4]; 10 mg/kg im)?
The AUC was 5 µg·h/mL.

What about the half-life ([4]; 10 mg/kg im) of the same compound?
Its half-life is 15 min.

And the concentration at 10 min ([4]; 10 mg/kg im)?
The concentration at 10 min was 12 µg/mL.

What about the concentration at 20 min ([4]; 10 mg/kg im) of the same compound?
Its concentration at 20 min is 7.4 µg/mL.

And the concentration at 0.5 h ([4]; 10 mg/kg im)?
The concentration at 0.5 h was 4.7 µg/mL.

What about the concentration at 40 min ([4]; 10 mg/kg im) of the same compound?
Its concentration at 40 min is under 3 µg/mL.

What about the AUC ([4]; 20 mg/kg im) of the same compound?
The AUC was 16 µg·h/mL.

What about the half-life ([4]; 20 mg/kg im) of the same compound?
The half-life was 14 min.

What about the concentration at 10 min ([4]; 20 mg/kg im) of the same compound?
Its concentration at 10 min is 33 µg/mL.

What about the concentration at 20 min ([4]; 20 mg/kg im) of the same compound?
Its concentration at 20 min is 24 µg/mL.

What about the concentration at 0.5 h ([4]; 20 mg/kg im) of the same compound?
The concentration at 0.5 h was 18 µg/mL.

What about the concentration at 40 min ([4]; 20 mg/kg im) of the same compound?
Its concentration at 40 min is 9.4 µg/mL.

And the concentration at 50 min ([4]; 20 mg/kg im)?
The concentration at 50 min was 6.7 µg/mL.

What about the concentration at 1 h ([4]; 20 mg/kg im) of the same compound?
Its concentration at 1 h is 3.5 µg/mL.

And the concentration at 1.5 h ([4]; 20 mg/kg im)?
The concentration at 1.5 h was under 3 µg/mL.

What about the AUC ([4]; 40 mg/kg im) of the same compound?
Its AUC is 25 µg·h/mL.

What about the half-life ([4]; 40 mg/kg im) of the same compound?
Its half-life is 13 min.

And the concentration at 10 min ([4]; 40 mg/kg im)?
The concentration at 10 min was 51 µg/mL.

What about the concentration at 20 min ([4]; 40 mg/kg im) of the same compound?
The concentration at 20 min was 40 µg/mL.

What about the concentration at 0.5 h ([4]; 40 mg/kg im) of the same compound?
The concentration at 0.5 h was 29 µg/mL.

What about the concentration at 40 min ([4]; 40 mg/kg im) of the same compound?
The concentration at 40 min was 15 µg/mL.

And the concentration at 50 min ([4]; 40 mg/kg im)?
The concentration at 50 min was 9 µg/mL.

What about the concentration at 1 h ([4]; 40 mg/kg im) of the same compound?
The concentration at 1 h was 4.6 µg/mL.

And the concentration at 1.5 h ([4]; 40 mg/kg im)?
The concentration at 1.5 h was under 3 µg/mL.

What about the MIC [5] of the same compound?
Its MIC is 0.69 mg/L (≈ 1.15 µM).

What about the MIC (Ps. aeruginosa) of the same compound?
The MIC was 1.4 mg/L (≈ 2.34 µM).

And the MIC [6]?
Its MIC is 0.038 mg/L (≈ 0.0635 µM).
